Experimental data taken from publication PMC5830651 (Molecular Oncology, 2018).

Columns and labels:
Assay type in all cases: biochemical
AURKA = biological target: T1, AURKA (Homo sapiens, UniProt O14965); test: in vitro kinase assay
T1 construct: recombinant
T1 sequence (O14965 1-403): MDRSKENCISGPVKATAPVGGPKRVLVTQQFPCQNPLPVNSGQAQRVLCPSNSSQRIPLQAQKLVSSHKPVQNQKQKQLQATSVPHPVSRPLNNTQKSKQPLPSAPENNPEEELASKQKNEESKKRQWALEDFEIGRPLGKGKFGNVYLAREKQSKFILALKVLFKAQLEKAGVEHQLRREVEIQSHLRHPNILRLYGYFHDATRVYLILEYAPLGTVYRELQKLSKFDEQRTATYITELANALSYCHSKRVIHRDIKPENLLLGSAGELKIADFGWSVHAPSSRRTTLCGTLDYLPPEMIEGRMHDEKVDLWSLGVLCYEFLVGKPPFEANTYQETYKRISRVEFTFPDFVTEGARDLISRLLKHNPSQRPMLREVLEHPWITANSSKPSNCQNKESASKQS
From the text: in vitro kinase assay on AURKA

CDK5/p35 = biological target: T2, CDK5/p35 (Homo sapiens, UniProt Q00535); test: Invitrogen Select Screen kinase assay; conditions: read-out: CCT068127 Mean IC50 (μmol.L^-1) ± SE; mean of two determinations
T2 construct: recombinant complex, Invitrogen Select Screen service
T2 sequence (Q00535 whole entry): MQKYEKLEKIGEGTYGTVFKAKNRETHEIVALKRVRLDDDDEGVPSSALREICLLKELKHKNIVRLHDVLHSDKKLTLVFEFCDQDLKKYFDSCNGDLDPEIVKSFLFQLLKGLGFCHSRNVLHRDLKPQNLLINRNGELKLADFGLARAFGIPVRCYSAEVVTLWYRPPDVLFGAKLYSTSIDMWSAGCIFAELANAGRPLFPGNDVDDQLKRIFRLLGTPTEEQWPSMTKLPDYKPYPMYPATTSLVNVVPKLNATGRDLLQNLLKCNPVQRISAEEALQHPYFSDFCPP
T2 sequence (Q15078 2-307 partner): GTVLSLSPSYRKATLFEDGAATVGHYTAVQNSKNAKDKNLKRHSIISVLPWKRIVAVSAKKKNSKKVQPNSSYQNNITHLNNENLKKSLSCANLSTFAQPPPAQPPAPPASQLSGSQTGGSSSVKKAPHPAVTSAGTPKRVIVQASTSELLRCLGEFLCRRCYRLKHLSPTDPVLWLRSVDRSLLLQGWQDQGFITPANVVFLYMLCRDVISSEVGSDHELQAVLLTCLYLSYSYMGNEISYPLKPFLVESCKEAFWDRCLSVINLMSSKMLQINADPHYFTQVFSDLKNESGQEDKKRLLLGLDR
From the text: Invitrogen Select Screen kinase assay on CDK5/p35

FLT3 = biological target: T3, FLT3 (Homo sapiens, UniProt P36888); test: in vitro kinase assay
T3 construct: recombinant
T3 sequence (P36888 27-993): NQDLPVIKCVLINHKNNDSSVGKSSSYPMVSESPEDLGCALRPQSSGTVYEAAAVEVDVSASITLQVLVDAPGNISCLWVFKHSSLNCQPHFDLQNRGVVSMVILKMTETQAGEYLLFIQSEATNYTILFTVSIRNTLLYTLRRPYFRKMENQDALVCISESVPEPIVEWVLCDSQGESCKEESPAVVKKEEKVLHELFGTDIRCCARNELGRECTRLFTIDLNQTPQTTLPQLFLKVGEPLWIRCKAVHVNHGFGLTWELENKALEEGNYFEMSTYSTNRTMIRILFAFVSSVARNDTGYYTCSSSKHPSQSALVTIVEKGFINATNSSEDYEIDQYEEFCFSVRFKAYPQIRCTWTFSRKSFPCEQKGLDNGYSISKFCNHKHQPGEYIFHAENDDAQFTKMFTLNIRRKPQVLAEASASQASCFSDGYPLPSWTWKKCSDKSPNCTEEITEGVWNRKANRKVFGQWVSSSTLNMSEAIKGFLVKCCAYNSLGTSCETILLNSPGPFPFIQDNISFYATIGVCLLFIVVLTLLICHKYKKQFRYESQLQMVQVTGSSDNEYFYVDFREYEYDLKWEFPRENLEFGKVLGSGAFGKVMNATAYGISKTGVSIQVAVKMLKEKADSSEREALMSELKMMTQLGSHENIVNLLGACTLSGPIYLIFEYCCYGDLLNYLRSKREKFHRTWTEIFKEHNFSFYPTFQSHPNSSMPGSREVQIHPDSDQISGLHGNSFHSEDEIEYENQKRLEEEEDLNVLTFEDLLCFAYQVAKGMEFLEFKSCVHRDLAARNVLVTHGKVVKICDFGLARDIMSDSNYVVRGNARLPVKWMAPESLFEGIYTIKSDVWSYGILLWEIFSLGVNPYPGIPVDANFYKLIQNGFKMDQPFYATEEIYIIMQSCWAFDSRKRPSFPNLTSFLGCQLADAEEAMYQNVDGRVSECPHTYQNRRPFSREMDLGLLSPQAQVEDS
From the text: in vitro kinase assay on FLT3

PLK1 = biological target: T4, PLK1 (Homo sapiens, UniProt P53350); test: in vitro kinase assay
T4 construct: recombinant
T4 sequence (P53350 2-603): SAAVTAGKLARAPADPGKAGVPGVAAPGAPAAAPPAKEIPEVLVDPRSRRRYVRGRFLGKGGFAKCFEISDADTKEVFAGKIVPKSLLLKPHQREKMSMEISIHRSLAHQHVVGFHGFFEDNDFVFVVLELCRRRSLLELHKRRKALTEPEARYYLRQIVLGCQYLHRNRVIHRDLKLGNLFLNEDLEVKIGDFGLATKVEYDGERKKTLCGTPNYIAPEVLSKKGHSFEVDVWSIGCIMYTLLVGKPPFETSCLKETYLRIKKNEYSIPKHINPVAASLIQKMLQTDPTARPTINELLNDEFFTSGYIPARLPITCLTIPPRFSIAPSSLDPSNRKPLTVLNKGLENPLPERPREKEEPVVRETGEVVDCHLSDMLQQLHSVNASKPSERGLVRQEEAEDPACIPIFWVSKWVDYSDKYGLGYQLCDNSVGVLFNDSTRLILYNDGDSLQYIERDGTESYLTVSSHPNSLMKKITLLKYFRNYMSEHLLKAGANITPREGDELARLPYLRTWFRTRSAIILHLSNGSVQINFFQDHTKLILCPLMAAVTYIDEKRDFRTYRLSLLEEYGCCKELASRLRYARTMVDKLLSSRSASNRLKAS
From the text: in vitro kinase assay on PLK1

ABL = biological target: T5, ABL (Homo sapiens, UniProt P00519); test: in vitro kinase assay
T5 construct: gene ABL1; recombinant
From the text: in vitro kinase assay on ABL

CDK1/B (CDK1/cyclin B) = biological target: T6, CDK1/B (CDK1/cyclin B) (Homo sapiens, UniProt P06493); test: in vitro kinase assay; conditions: read-out: CCT068127 Mean IC50 (μmol.L^-1) ± SE; mean of three independent repeats
T6 construct: recombinant human kinase complex; with G2/mitotic-specific cyclin-B1
T6 sequence (P06493 whole entry): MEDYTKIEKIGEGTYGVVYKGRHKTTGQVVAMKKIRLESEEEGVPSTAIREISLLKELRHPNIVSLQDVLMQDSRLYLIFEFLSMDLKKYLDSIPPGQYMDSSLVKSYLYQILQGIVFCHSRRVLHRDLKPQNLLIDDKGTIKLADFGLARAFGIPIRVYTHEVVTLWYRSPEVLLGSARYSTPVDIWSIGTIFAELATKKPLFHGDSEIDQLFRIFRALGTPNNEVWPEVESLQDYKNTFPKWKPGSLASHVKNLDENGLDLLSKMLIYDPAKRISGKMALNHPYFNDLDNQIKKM
T6 sequence (P14635 whole entry partner): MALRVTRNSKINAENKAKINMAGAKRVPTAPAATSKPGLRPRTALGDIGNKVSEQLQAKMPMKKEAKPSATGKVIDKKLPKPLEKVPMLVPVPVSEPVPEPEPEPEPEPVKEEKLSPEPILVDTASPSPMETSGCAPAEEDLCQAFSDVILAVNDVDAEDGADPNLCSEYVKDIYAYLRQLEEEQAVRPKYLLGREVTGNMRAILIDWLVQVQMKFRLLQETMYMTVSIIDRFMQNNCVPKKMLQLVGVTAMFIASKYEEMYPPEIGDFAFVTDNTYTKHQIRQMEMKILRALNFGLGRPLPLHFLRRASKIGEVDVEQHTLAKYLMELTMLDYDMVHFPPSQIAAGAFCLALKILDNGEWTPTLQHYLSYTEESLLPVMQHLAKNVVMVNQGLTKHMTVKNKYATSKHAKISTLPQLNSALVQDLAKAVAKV
From the text: in vitro kinase assay on CDK1/B (CDK1/cyclin B)

LCK = biological target: T7, LCK (Homo sapiens, UniProt P06239); test: in vitro kinase assay
T7 construct: recombinant
T7 sequence (P06239 2-509): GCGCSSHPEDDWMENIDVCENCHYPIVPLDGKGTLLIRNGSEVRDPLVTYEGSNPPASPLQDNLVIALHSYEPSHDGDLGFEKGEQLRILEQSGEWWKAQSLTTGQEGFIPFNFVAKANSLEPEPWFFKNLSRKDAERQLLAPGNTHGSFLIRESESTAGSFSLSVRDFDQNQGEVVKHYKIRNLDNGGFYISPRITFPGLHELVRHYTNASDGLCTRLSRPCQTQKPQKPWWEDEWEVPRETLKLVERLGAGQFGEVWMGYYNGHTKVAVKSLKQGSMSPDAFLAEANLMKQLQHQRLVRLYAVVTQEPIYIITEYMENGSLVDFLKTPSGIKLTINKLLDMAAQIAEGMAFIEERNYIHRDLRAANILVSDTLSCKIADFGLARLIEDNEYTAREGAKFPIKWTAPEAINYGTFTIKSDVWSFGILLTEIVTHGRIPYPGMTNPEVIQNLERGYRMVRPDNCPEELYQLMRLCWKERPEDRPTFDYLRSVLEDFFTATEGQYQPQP
From the text: in vitro kinase assay on LCK

PDGFB = biological target: T8, PDGFB (Homo sapiens, UniProt P09619); test: in vitro kinase assay
T8 construct: gene PDGFRB; recombinant kinase; printed PDGFB, must be the receptor kinase PDGFR beta
From the text: in vitro kinase assay on PDGFB

ERK2 = biological target: T9, ERK2 (Homo sapiens, UniProt P28482); test: in vitro kinase assay
T9 construct: gene MAPK1; recombinant
T9 sequence (P28482 2-360): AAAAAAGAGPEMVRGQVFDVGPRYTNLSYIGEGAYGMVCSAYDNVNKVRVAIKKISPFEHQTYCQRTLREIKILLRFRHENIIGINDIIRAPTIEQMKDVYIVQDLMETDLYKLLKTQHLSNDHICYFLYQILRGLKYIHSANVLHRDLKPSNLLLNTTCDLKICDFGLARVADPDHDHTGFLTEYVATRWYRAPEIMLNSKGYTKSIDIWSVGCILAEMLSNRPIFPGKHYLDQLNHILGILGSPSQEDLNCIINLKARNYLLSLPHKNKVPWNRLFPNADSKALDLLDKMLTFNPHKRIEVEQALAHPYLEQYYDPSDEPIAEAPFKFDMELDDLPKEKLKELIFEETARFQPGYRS
From the text: in vitro kinase assay on ERK2

CDK6/D3 = biological target: T10, CDK6/D3 (Homo sapiens, UniProt Q00534); test: in vitro kinase assay; conditions: read-out: CCT068127 Mean IC50 (μmol.L^-1) ± SE; mean of three independent repeats
T10 construct: recombinant human kinase complex; with G1/S-specific cyclin-D3
T10 sequence (Q00534 whole entry): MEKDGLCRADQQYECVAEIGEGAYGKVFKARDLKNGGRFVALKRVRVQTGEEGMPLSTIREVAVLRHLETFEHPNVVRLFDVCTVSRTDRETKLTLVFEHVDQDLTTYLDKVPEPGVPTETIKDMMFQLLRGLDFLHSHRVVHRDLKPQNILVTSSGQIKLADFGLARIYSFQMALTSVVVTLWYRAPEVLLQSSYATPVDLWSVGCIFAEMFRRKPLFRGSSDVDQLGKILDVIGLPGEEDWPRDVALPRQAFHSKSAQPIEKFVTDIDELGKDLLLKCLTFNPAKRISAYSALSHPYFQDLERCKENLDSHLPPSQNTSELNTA
T10 sequence (P30281 whole entry partner): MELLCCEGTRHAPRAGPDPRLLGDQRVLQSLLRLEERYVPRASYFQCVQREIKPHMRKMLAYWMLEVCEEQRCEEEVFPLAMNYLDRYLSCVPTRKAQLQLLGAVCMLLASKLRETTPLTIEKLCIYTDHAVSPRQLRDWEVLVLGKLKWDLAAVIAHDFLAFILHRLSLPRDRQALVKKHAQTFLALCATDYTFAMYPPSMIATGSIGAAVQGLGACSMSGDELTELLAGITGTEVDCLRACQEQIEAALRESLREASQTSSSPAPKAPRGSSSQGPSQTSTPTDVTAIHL
From the text: in vitro kinase assay on CDK6/D3

SRC = biological target: T11, SRC (Homo sapiens, UniProt P12931); test: in vitro kinase assay
T11 construct: recombinant
T11 sequence (P12931 2-536): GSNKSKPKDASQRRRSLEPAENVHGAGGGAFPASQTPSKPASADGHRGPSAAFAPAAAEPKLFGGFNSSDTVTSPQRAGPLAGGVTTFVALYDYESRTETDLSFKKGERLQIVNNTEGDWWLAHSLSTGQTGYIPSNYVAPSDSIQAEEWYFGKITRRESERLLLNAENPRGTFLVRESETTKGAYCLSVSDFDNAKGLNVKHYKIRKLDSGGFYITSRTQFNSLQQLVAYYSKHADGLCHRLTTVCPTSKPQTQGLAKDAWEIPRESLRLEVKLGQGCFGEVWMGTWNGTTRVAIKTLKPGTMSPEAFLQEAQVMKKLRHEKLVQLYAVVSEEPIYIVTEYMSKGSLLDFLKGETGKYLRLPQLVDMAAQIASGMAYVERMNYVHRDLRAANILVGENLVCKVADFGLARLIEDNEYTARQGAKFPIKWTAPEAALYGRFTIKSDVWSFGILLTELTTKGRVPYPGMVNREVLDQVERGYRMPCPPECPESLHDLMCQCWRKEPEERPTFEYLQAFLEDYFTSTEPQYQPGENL
From the text: in vitro kinase assay on SRC

SAP2KA = biological target: T12, SAP2KA (Homo sapiens, UniProt Q16539); test: in vitro kinase assay
T12 construct: gene MAPK14; recombinant; printed SAP2KA, read as SAPK2A
T12 sequence (Q16539 2-360): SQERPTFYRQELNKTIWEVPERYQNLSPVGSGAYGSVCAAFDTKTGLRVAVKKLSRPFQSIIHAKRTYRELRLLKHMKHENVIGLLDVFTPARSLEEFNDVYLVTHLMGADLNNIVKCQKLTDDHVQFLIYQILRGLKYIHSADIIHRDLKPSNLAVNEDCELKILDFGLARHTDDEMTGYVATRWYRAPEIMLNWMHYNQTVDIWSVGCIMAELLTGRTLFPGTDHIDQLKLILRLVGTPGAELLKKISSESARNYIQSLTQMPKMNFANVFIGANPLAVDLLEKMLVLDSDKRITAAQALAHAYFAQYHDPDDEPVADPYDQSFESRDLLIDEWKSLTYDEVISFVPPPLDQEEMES
From the text: in vitro kinase assay on SAP2KA

Measured: IC50

CC[C@H](Nc1nc(NCc2cccnc2)c2ncn(C(C)C)c2n1)[C@@H](C)O [CCT068127]
> 10 µM: AURKA | FLT3 | PLK1 | ABL | LCK | PDGFB | ERK2 | SRC | SAP2KA
0.07 µmol/L: CDK5/p35
1.1 ± 0.29 µmol/L: CDK1/B (CDK1/cyclin B)
6.2 ± 0.6 µmol/L: CDK6/D3
